Results on one compound are retold here after patent US12365687B2 (Hoffmann-La Roche Inc., priority 2021, dated 2025).

In test [1] the target is human GABAA α5β2γ1 receptor (Homo sapiens (Human), UniProt P31644+Q8N1C3). The test is described as follows: Radioligand binding assay for γ1-containing GABAA subtypes, [3H]RO7239181 competition (α5β2γ1).
Test [2] addresses human GABAA α2β2γ1 receptor (Homo sapiens (Human), UniProt P47869+Q8N1C3). Description: Radioligand binding assay for γ1-containing GABAA subtypes, [3H]RO7239181 competition (α2β2γ1).
Test [3] concerns the target human GABAA α1β2γ1 receptor (Homo sapiens (Human), UniProt P14867+Q8N1C3). The test is described as follows: Radioligand binding assay for γ1-containing GABAA subtypes, [3H]RO7239181 competition (α1β2γ1). Here is the method: The affinity of compounds at GABAA γ1 subunit-containing receptors was measured by competition for [^3H]RO7239181 (67.3 Ci/mmol; Roche) binding to membranes from HEK293F cells (ThermoFisher R79007) expressing human (transiently transfected) receptors of composition α5β2γ1, α2β2γ1, α1β2γ1.
Harvested pellets from HEK293F cells expressing the different GABAA receptor subtypes were resuspended in Mannitol Buffer pH 7.2-7.4 (Mannitol 0.29 M, Triethylamine 10 mM, Acetic acid 10 mM, EDTA 1 mM plus protease inhibitors (20 tablets Complete, Roche Diagnostics Cat. No. 05 056 489 001 per liter)), washed two times and then resuspended at 1:10 to 1:15 dilution in the same buffer. Cell disruption was performed by stirring the suspension in a Parr vessel #4637 at 435 psi for 15 minutes, and then the suspensions were centrifuged at 1000×g for 15 minutes at 4° C. (Beckman Avanti J-HC; rotor JS-4.2). The supernatant (S1) was transferred in a 2 l Schott flask and the pellet (P1) was resuspended with Mannitol Buffer up to 175 ml. The resuspended pellet was transferred into a 250 ml Corning centrifugal beaker and centrifuged at 1500×g for 10 minutes at 4° C. (Beckman Avanti J-HC; rotor JS-4.2). The supernatant (S1) was then transferred in the 2 l Schott flask and the pellet was discarded. The supernatants (S1) were centrifuged in 500 ml Beckman polypropylene centrifugal beaker at 15′000×g for 30 minutes at 4° C. (Beckman Avanti J-20 XP; rotor JLA-10.500). The pellet (P2) was resuspended with Mannitol Buffer 1:1 and frozen at −80° C. The supernatant (S2) was centrifuged in 100 ml Beckman polypropylene centrifugal tubes at 48000×g for 50 minutes at 4° C. (Beckman Avanti J-20 XP; rotor JA-18). The supernatant (S3) was discarded and the pellet (P3) was resuspended with 1:1 Mannitol Buffer. The P2 and P3 protein concentration was determined with the BIORAD Standard assay method with bovine serum albumin as standard and measured on the NANO-Drop 1000. The membrane suspension was aliquots (500 μl per tube) and stored at −80° C. until required.
Membrane homogenates were resuspended and polytronised (Polytron PT1200E Kinematica AG) in Potassium Phosphate 10 mM, KCl 100 mM binding buffer at pH 7.4 to a final assay concentration determined with a previous experiment.
Assays were incubated to equilibrium for 1 hour at 4° C. and then, membranes were filtered onto unifilter (96-well white microplate with bonded GF/C filters preincubated 20-50 minutes in 0.3% Polyethylenimine) with a Filtermate 196 harvester (Packard BioScience) and washed 4 times with cold Potassium Phosphate 10 mM pH 7.4, KCl 100 mM binding buffer. After anhydrousing, filter-retained radioactivity was detected by liquid scintillation counting. Ki values were calculated using Excel-Fit (Microsoft) and are the means of two determinations.

Test [4] addresses human GABAA α1β3γ2 receptor (Homo sapiens (Human), UniProt P14867+P18507). Description: Radioligand binding assay for γ2-containing GABAA subtypes, [3H]Flumazenil competition (α1β3γ2).
Test [5] concerns the target α2β2γ1 GABAA receptor subtype (Homo sapiens (Human), UniProt P47869+Q8N1C3). Description: Two-electrode voltage clamp electrophysiology in Xenopus oocytes expressing GABAA receptors (modulation of GABA EC20 current). In kind it is cell-based. The method in brief:
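Each concentration was tested on ≥3 oocytes held at −80 mV at room temperature, recorded 3-5 days post-injection. A control and a test response to EC20 GABA (1.5 min each) were superimposed and their point-by-point ratio taken. Peak ratio reported as % modulation of GABA EC20 = 100×(fold increase−1).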

Structures are written as SMILES.

The term Ki denotes the equilibrium dissociation constant of an inhibitor or competing ligand from its target. Lower therefore signals higher affinity. Take `C[C@@H]1N=C(c2ncccc2F)c2c(ccc(C(F)(F)F)c2Cl)-n2cc(C(=O)NCC(C)(C)O)nc21` [Example 159, (4S)-7-chloro-6-(3-fluoro-2-pyridyl)-N-(2-hydroxy-2-methyl-propyl)-4-methyl-8-(trifluoromethyl)-4H-imidazo[1,2-a][1,4]benzodiazepine-2-carboxamide]: the Ki turned out to be 11.4 nM in test [1]; 43 nM in test [2] (Ki h-GABAA α2β2γ1, [3H]RO7239181 competition binding, human GABAA α2β2γ1); 42.6 nM in test [2] (Ki h-GABAA α2β2γ1, displacement of [3H]RO7239181, membranes of HEK293F cells expressing human receptors, means of two determinations); 70.4 nM in test [3]; 8320 nM in test [4]. The “γ2/γ1 Selectivity Ratio” value in test [4] (Ki α1β3γ2 (nM)/Ki α2β2γ1 (nM)) is given as 195.6. Besides, the LogSel in test [4] (Log[Ki α1β3γ2 (nM)/Ki α2β2γ1 (nM)]) is 2.29. Further, the “Efficacy (GABA)%” value in test [5] (% modulation of GABA EC20 = 100*(Fold increase-1), α2β2γ1 oocytes, compound at approx. 30-fold Ki) was determined as 217%. The “Fold increase h-GABA-A α2β2γ1 oocyte @ 30-fold Ki” value in test [5] (Xenopus oocytes expressing α2β2γ1, compound at approx. 30-fold its Ki α2β2γ1, GABA EC20 current) was 3.17.
